Experimental data: patent publication US11185536B2, “Treatment of hearing loss by inhibition of casein kinase 1” (Massachusetts Eye & Ear Infirmary, priority 2015, dated 2021)
Entries after “also recorded” stand apart in the source; their conditions may differ.

What was measured:
[1] = system: Atoh1; experiment: Steady-state abundance of Atoh1 in human 293T cells; type: cell-based
[2] = system: Atoh1-Huwe1 binding; experiment: Co-immunoprecipitation of Atoh1-Huwe1 binding and Atoh1 ubiquitylation in HEK cells; type: cell-based; conditions: HEK cells co-transfected with HA-ubiquitin and FLAG-Atoh1, 4 hours treatment, co-IP
Protocol: HEK cells were co-transfected with HA-ubiquitin and FLAG-Atoh1 plasmids for 48 hours and treated with CK1 inhibitors (PF-670462 or D4476) and/or proteasome inhibitor MG132 (10 μM) for 4 hours. Immunoprecipitation was performed under denaturing conditions with anti-FLAG antibody. Endogenous Huwe1 was detected with an anti-Huwe1 antibody. Atoh1 was detected with anti-FLAG while ubiquitin was detected with anti-HA antibodies.
To explore the effect of CK1 on proteasomal degradation of Atoh1, we performed co-IP experiments.

[3] = system: Atoh1-specific E-box activity; experiment: Dual luciferase reporter assay with Atoh1 E-box associated motif (AtEAM) in HEK cells; type: cell-based; conditions: HEK cells with or without Atoh1 overexpression, overnight, normalized to Renilla luciferase
Protocol: Dual luciferase assay using a firefly reporter construct with an AtEAM motif in HEK cells. Experiments were done in triplicate, and data are presented as the mean±SEM after normalization to Renilla luciferase
DMSO or CK1 inhibitor D4476 was added to HEK with or without overexpression of Atoh1 for overnight to block the degradation of Atoh1 and therefore downstream Atoh1-specific E-box activity.
To further assess potential roles of CK1 in the control of Atoh1 signaling, we performed dual luciferase reporter assays using a firefly reporter construct with an Atoh1 E-box associated motif (AtEAM) and a Renilla control reporter. AtEAM is a ten […] Atoh1-specific binding motif that represents the site for the activity of Atoh1 in numerous downstream genes (Klisch et al., Proc Natl Acad Sci USA. 2011 February 22; 108(8):3288-93). Inhibition of CK1 by D4476 increased and overexpression of CK1 (specifically CK1δ and/or CK1ε) reduced Atoh1 downstream signaling (FIG. 7A).

[4] = system: Atoh1; experiment: Atoh1 protein in newborn organ of Corti explants (Western blotting, densitometry); type: cell-based, mice; conditions: newborn mouse organ of Corti explants, 10 μM, 72 hours
Protocol: Effect of CK1 inhibition on Atoh1 upregulation in the organ of Corti. Newborn organs of Corti (P1) were treated with the CK1 inhibitor D4476 (10 uM) for 72 hours. Atoh1 were quantified after Western blotting by densitometry and normalized to a loading control (beta-actin).

[5] = system: organ of Corti explants; experiment: Sox2 lineage tracing of supporting cells in organ of Corti explants (hair cell generation); type: cell-based, mice; set-up: double-labeled cells positive for Sox2 lineage and myosin VIIa: dose or concentration left out as unconfirmed
Excerpt: Hair cell co-labeling with the lineage tag indicates derivation from a Sox2-positive cell (labeled with asterisks) and is thus evidence for newly generated hair cells by transdifferentiation of supporting cells. OHCs, at the bottom of the image, are delineated by a light gray bracket while IHCs, at the top of the image, are delineated by a white bracket. The scale bar is 25 μm.
(B, C) Effect of CK1 inhibition was significant.
Since CK1 inhibition stabilized Atoh1, we assessed its effect on hair cell generation in the cochlea. A Sox2-positive Cre-reporter strain crossed with CAG-TdTomato (Bramhall et al., Stem cell reports 2, 311-322 (2014)) was used to label all supporting cells for lineage tracing to follow supporting cells after CK1 inhibition.

[6] = system: Aminoglycoside-exposed organ of Corti explants; experiment: Sox2 lineage tracing in aminoglycoside-exposed organ of Corti explants (hair cell regeneration); type: cell-based
Protocol: Images of the basal turn of the lineage-traced organ of Corti damaged by gentamycin and treated with CK1 inhibitor D4476 for 72 hours. […] The scale bar is 25 μm.
Aminoglycoside-exposed organ of Corti explants^3 were treated with 10 μM D4476 for 72 hours and lineage traced.

[7] = organ of Corti explants, 10 μM, 72 hours, vs DMSO

| Compound | steady-state abundance of Atoh1 [1] | Atoh1-Huwe1 binding [2] | ubiquitylation of Atoh1 [2] | Atoh1 downstream signaling (Atoh1-specific E-box activity) [3] | Atoh1 protein in the cochlea based on densitometry [4] | double-labeled cells positive for Sox2 lineage and myosin VIIa ([5]; mid-base region of neonatal mouse cochlear tissue, 3 days after treatment) | number of reporter-labeled inner hair cells (IHCs) [5, 7] | number of reporter-labeled outer hair cells (OHCs) [5, 7] | hair cell generation in the organ of Corti ([5]; summary statement) | Sox2-lineage-tagged hair cells (co-labeled with myosin VIIa and TdTomato) after aminoglycoside damage ([6]; gentamycin-damaged explants, 10 μM, 72 hours) | hair cell regeneration after aminoglycoside damage ([6]; summary statement) |
| --- | --- | --- | --- | --- | --- | --- | --- | --- | --- | --- | --- |
| NC(=O)c1ccc(-c2nc(-c3ccc4c(c3)OCCO4)c(-c3ccccn3)[nH]2)cc1 [D4476, 4-[4-(2,3-Dihydro-1,4-benzodioxin-6-yl)-5-(2-pyridinyl)-1H-imidazol-2-yl]benzamide] | increased the steady-state abundance of Atoh1 | diminished Atoh1-Huwe1 binding | diminished | increases Atoh1-specific E-box activity; also recorded: increased | caused stabilization of Atoh1 protein | found both in the inner hair cell and outer hair cell area | significantly increased; also recorded: significantly more | significantly increased; also recorded: significantly more | increase hair cell generation | resulted in an increase of Sox2-lineage-tagged hair cells; also recorded: indicated transdifferentiation of supporting cells | promote hair cell regeneration |
| COc1cc(OC)c(C=C2C(=O)Nc3ccccc32)c(OC)c1 [IC-261, 1,3-Dihydro-3-[(2,4,6-trimethoxyphenyl)methylene]-2H-indol-2-one] | increased the steady-state abundance of Atoh1 |  |  |  |  |  |  |  |  |  |  |
| Cl.Cl.Nc1nccc(-c2c(-c3ccc(F)cc3)ncn2C2CCCCC2)n1 [PF-670462, 4-[3-Cyclohexyl-5-(4-fluoro-phenyl)−3H-imidazol-4-yl]-pyrimidin-2-ylamine dihydrochloride] | increased the steady-state abundance of Atoh1 | diminished Atoh1-Huwe1 binding | diminished |  |  |  |  |  |  |  |  |
